Values of other authors, collected in patent publication US7439256B2, “(Arylamidoaryl) cyanoguanidine compounds” (priority 2004, dated 2008).
Counter-ions that a name gives are not always drawn.

Tested on: MO7e human leukemia cells

SMILES: Cc1ccc(NC(=O)c2ccc(CN3CCN(C)CC3)cc2)cc1Nc1nccc(-c2cccnc2)n1 [Gleevec, imatinib mesylate]
- GM-CSF stimulated growth of MO7e human leukemia cells (GM-CSF stimulated): not affected
- Kit ligand-stimulated growth of MO7e human leukemia cells (Kit ligand-stimulated): inhibited
- apoptosis in MO7e human leukemia cells (Kit ligand-stimulated conditions): induces apoptosis
